Results from EPA's ToxValDB 9.5 (doi:10.2903/j.efsa.2016.4374).
In brackets after ≈: the same amount, converted by molar mass.

Legend:
Folsomia candida = settings: chronic/long-term; duration: 28 days; mortality
Canidae = settings: subchronic; duration: 90 days; oral; Dog Other; organ weight
Cyprinus carpio = settings: acute; mortality
Pleurozium sp. = settings: acute; growth
Apis mellifera = settings: acute, duration: 48 hours, mortality
Tagia sp. = settings: chronic/long-term; duration: 56 days; reproduction
Anas platyrhynchos = settings: acute; oral; unspecified; mortality
Hypoaspis aculeifer = settings: chronic/long-term; duration: 14 days; mortality
Daphnia magna = settings: chronic/long-term; reproduction
Bibionidae = settings: chronic/long-term; growth
Danio rerio = settings: chronic; growth
Myriophyllum spicatum = settings: acute; growth
Typhlodromus pyri = assay: LR50; higher = less toxic; settings: not reported; mortality

CCOC1Oc2ccc(OS(C)(=O)=O)cc2C1(C)C (centres undefined) [Ethofumesate]
NOEC (Folsomia candida): 13.3 mg/kg | NOAEL (Canidae): 250 mg/kg-day | LD50 (Colinus virginianus; acute, oral, mortality): 3780 mg/kg-day | NOEL (Colinus virginianus; reproduction developmental): 265 mg/kg-day | LC50 (Cyprinus carpio): 10.9 µg/mL (≈ 38.1 µM) | NOEC (Pleurozium sp.): 9.68 mg/L | LD50 (Rattus norvegicus; acute, oral, mortality): > 5000 mg/kg-day | NOAEL (Rattus norvegicus; chronic, duration: 2 years, oral, F, organ weight): 101 mg/kg-day | NOAEL (Rattus norvegicus; reproduction developmental, body weight): 60.9 mg/kg-day | LD50 (Apis mellifera; dermal): > 50 µg/piece | LD50 (Apis mellifera; oral, unspecified): > 50 µg/piece | NOEC (Tagia sp.): 12.5 mg/kg | LD50 (Anas platyrhynchos): 3780 mg/kg-day | NOEC (Hypoaspis aculeifer): 22.1 mg/kg | NOEC (Daphnia magna): 0.25 mg/L | NOEC (Bibionidae): 3.82 mg/L | NOEC (Danio rerio): 0.156 mg/L | NOEC (Myriophyllum spicatum): 0.25 mg/L | LR50 (Typhlodromus pyri): > 1000 g/ha
